# Measurements reported in patent US10597388B2, “Pyridazinone herbicides” (FMC CORPORATION, priority 2014, dated 2020).
# Where two headings read alike, the source gives them in different places.
# Columns and labels:
# Format in all cases: in vivo
# [1] = system: wheat (Triticum aestivum); experiment: Test A greenhouse herbicide test, pre- and postemergence; settings: Triticum aestivum, 240 h; for plant injury at 125 g/ha: 125 g ai/ha; for plant injury at 500 g/ha: 500 g ai/ha; for plant injury at 500 g/ha / plant injury at 1000 g/ha: 0 to 100 scale; for plant injury at 1000 g/ha: 1000 g ai/ha
# In short: (§1)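 Seeds in loam–sand blend received a preemergence directed soil spray; plants at 2–10 cm, one- to two-leaf stage, received postemergence sprays. Compounds in a non-phytotoxic solvent with surfactant. After about 10 d in a greenhouse, injury rated visually versus untreated controls on a 0–100 scale (100 = complete control).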
# corn (Zea mays) = experiment: as above; settings: Zea mays, 240 h; for plant injury at 1000 g/ha / Corn plant response rating (crop injury, 0 = no effect, 100 = complete kill) at 1000 g/ha: 1000 g ai/ha
# In short: as §1
# [2] = system: pigweed (Amaranthus retroflexus); experiment: as above; settings: Amaranthus retroflexus, 240 h; for pest or weed control at 125 g/ha: 125 g ai/ha; for pest or weed control at 500 g/ha: 500 g ai/ha; for pest or weed control at 500 g/ha / pest or weed control at 1000 g/ha: 0 to 100 scale; for pest or weed control at 1000 g/ha: 1000 g ai/ha
# In short: as §1
# [3] = system: barnyardgrass (Echinochloa crus-galli); experiment: as above; settings: Echinochloa crus-galli, 240 h; for pest or weed control at 125 g/ha: 125 g ai/ha; for pest or weed control at 500 g/ha: 500 g ai/ha; for pest or weed control at 500 g/ha / pest or weed control at 1000 g/ha: 0 to 100 scale; for pest or weed control at 1000 g/ha: 1000 g ai/ha
# In short: as §1
# [4] = system: foxtail, giant (giant foxtail, Setaria faberii); experiment: as above; settings: Setaria faberi, 240 h; for pest or weed control at 125 g/ha: 125 g ai/ha; for pest or weed control at 500 g/ha: 500 g ai/ha; for pest or weed control at 500 g/ha / pest or weed control at 1000 g/ha: 0 to 100 scale; for pest or weed control at 1000 g/ha: 1000 g ai/ha
# In short: as §1
# [5] = system: waterhemp (common waterhemp, Amaranthus rudis); experiment: Test C greenhouse herbicide test, pre- and postemergence
# Excerpt: (§2) Seeds of plant species selected from blackgrass (Alopecurus myosuroides), ryegrass, Italian (Italian ryegrass, Lolium multiflorum), wheat (winter wheat, Triticum aestivum), galium (catchweed bedstraw, Galium aparine), corn (Zea mays), large crabgrass, large (large crabgrass, Digitaria sanguinalis), foxtail, giant (giant foxtail, Setaria faberii), johnsongrass (Sorghum halepense), lambsquarters (Chenopodium album), morningglory (Ipomoea coccinea), nutsedge, yellow (yellow nutsedge, Cyperus esculentus), pigweed (Amaranthus retroflexus), ragweed (common ragweed, Ambrosia elatior), soybean (Glycine max), barnyardgrass (Echinochloa crus-galli), oilseed rape (Brassica napus), waterhemp (common waterhemp, Amaranthus rudis), and velvetleaf (Abutilon theophrasti) were planted into a blend of loam soil and sand and treated preemergence with test chemicals formulated in a non-phytotoxic solvent mixture which included a surfactant.
# (§3) At the same time, plants selected from these crop and weed species and also chickweed (common chickweed, Stellaria media), kochia (Kochia scoparia), and oat, wild (wild oat, Avena fatua), were planted in pots containing Redi-Earth® planting medium (Scotts Company, 14111 Scottslawn Road, Marysville, Ohio 43041) comprising spaghnum peat moss, vermiculite, wetting agent and starter nutrients and treated with postemergence applications of test chemicals formulated in the same manner. Plants ranged in height from 2 to 18 cm (1- to 4-leaf stage) for postemergence treatments. Treated plants and controls were maintained in a greenhouse for 13 to 15 d, after which time all species were compared to controls and visually evaluated. Plant response ratings, summarized in Table C, are based on a scale of 0 to 100 where 0 is no effect and 100 is complete control. A dash (-) response means no test result.
# [6] = system: johnsongrass (Sorghum halepense); experiment: as above
# Excerpt: as §2, §3
# [7] = post-emergence, Postemergence, 0 is no effect, 100 is complete control, read-out: Wheat plant response rating
# [8] = pre-emergence, Preemergence, 0 no effect, 100 complete control, read-out: Plant response rating, Wheat
# [9] = post-emergence, Postemergence, 0 is no effect, 100 is complete control, read-out: Pigweed plant response rating
# [10] = pre-emergence, Preemergence, 0 no effect, 100 complete control, read-out: Plant response rating, Pigweed
# [11] = post-emergence, Postemergence, 0 is no effect, 100 is complete control, read-out: Barnyardgrass plant response rating
# [12] = pre-emergence, Preemergence, 0 no effect, 100 complete control, read-out: Plant response rating, Barnyardgrass
# [13] = post-emergence, Postemergence, 0 is no effect, 100 is complete control, read-out: Foxtail, Giant plant response rating
# [14] = pre-emergence, Preemergence, 0 no effect, 100 complete control, read-out: Plant response rating, Foxtail, Giant
# [15] = Postemergence, 31 g ai/ha, 0 to 100 scale (0 no effect, 100 complete control)
# [16] = Postemergence, 125 g ai/ha, scale 0 to 100, 0 is no effect, 100 is complete control
# [17] = Postemergence, 250 g ai/ha, scale 0 to 100, 0 no effect, 100 complete control, 13 to 15 d
# [18] = Preemergence, 62 g ai/ha, scale 0 to 100, 0 is no effect, 100 is complete control
# [19] = Preemergence, 125 g ai/ha, scale 0 to 100, 0 is no effect, 100 is complete control
# [20] = Preemergence, 250 g ai/ha, scale 0 to 100, 0 no effect, 100 complete control
# [21] = postemergence, 62 g ai/ha, scale 0 to 100, 0 no effect, 100 complete control
# [22] = Preemergence, 31 g ai/ha, scale 0 to 100, 0 is no effect, 100 is complete control
# [23] = post-emergence, Postemergence, 0 to 100 scale, 0 is no effect, 100 is complete control, read-out: Corn plant response rating
# [24] = pre-emergence, Preemergence, 0 to 100 scale, 0 no effect, 100 complete control
Compound,"Waterhemp plant response rating [5, 15]","Plant response rating, Waterhemp [5, 16]","Plant response rating, Waterhemp [5, 17]","Plant response rating, Waterhemp [5, 18]","Plant response rating, Waterhemp [5, 19]","Waterhemp plant response rating [5, 20]","Waterhemp plant response rating [5, 21]","Johnsongrass plant response rating [6, 15]","Plant response rating, Johnsongrass [6, 16]","Plant response rating, Johnsongrass [6, 17]","Plant response rating, Johnsongrass [6, 22]","Plant response rating, Johnsongrass [6, 18]","Plant response rating, Johnsongrass [6, 19]","Johnsongrass plant response rating [6, 20]","Johnsongrass plant response rating [6, 21]","plant injury at 1000 g/ha [1, 7] [%]","plant injury at 1000 g/ha [1, 8] [%]",plant injury at 1000 g/ha (corn (Zea mays); [23]) [%],"Corn plant response rating (crop injury, 0 = no effect, 100 = complete kill) at 1000 g/ha (corn (Zea mays); [24]) [%]","pest or weed control at 1000 g/ha [2, 9] [%]",other results
"Cc1cc(C)c2sc(C)c(-c3c(O)c(C)nn(C)c3=O)c2c1 [Compound 2, 5-hydroxy-2,6-dimethyl-4-(2,5,7-trimethylbenzo[b]thien-3-yl)-3(2H)-pyridazinone]",65,85,100,100,100,100,65,5,5,5,0,0,5,5,5,,,,,,"plant injury at 125 g/ha ([1]; post-emergence, Postemergence, visual rating after approx. 10 d, 0 to 100 scale (0 no effect, 100 complete control), read-out: Plant response rating, Wheat): 20%; plant injury at 500 g/ha [1, 7]: 20%; plant injury at 125 g/ha ([1]; pre-emergence, Preemergence, 0 to 100 scale where 0 is no effect and 100 is complete control, read-out: Wheat plant response rating): 0%; plant injury at 500 g/ha [1, 8]: 0%; Corn plant response rating (crop injury, 0 = no effect, 100 = complete kill) at 125 g/ha (corn (Zea mays); post-emergence, Postemergence, 125 g ai/ha, visual rating after approx. 10 d, 0 to 100 scale (0 no effect, 100 complete control)): 0%; plant injury at 500 g/ha (corn (Zea mays); post-emergence, Postemergence, 500 g ai/ha, 0 to 100 scale, 0 is no effect, 100 is complete control, read-out: Corn plant response rating): 20%; plant injury at 125 g/ha (corn (Zea mays); pre-emergence, Preemergence, 125 g ai/ha, 0 to 100 scale where 0 is no effect and 100 is complete control, read-out: Corn plant response rating): 0%; Corn plant response rating (crop injury, 0 = no effect, 100 = complete kill) at 500 g/ha (corn (Zea mays); pre-emergence, Preemergence, 500 g ai/ha, 0 to 100 scale, 0 no effect, 100 complete control): 10%; pest or weed control at 125 g/ha ([2]; post-emergence, Postemergence, visual rating after approx. 10 d, 0 to 100 scale (0 no effect, 100 complete control), read-out: Plant response rating, Pigweed): 100%; pest or weed control at 500 g/ha [2, 9]: 100%; pest or weed control at 125 g/ha ([2]; pre-emergence, Preemergence, 0 to 100 scale where 0 is no effect and 100 is complete control, read-out: Pigweed plant response rating): 100%; pest or weed control at 500 g/ha [2, 10]: 100%; pest or weed control at 125 g/ha ([3]; post-emergence, Postemergence, visual rating after approx. 10 d, 0 to 100 scale (0 no effect, 100 complete control), read-out: Plant response rating, Barnyardgrass): 30%; pest or weed control at 500 g/ha [3, 11]: 80%; pest or weed control at 125 g/ha ([3]; pre-emergence, Preemergence, 0 to 100 scale where 0 is no effect and 100 is complete control, read-out: Barnyardgrass plant response rating): 50%; pest or weed control at 500 g/ha [3, 12]: 80%; pest or weed control at 125 g/ha ([4]; post-emergence, Postemergence, visual rating after approx. 10 d, 0 to 100 scale (0 no effect, 100 complete control), read-out: Plant response rating, Foxtail, Giant): 80%; pest or weed control at 500 g/ha [4, 13]: 90%; pest or weed control at 125 g/ha ([4]; pre-emergence, Preemergence, 0 to 100 scale where 0 is no effect and 100 is complete control, read-out: Foxtail, Giant plant response rating): 100%; pest or weed control at 500 g/ha [4, 14]: 100%"
"CCc1oc2ccc(C)cc2c1-c1c(O)c(C)nn(C)c1=O [Compound 10, 4-(2-ethyl-5-methyl-3-benzofuranyl)-5-hydroxy-2,6-dimethyl-3(2H)-pyridazinone]",40,50,90,0,100,90,45,0,5,25,0,0,0,0,0,0,0,20,10,90,"pest or weed control at 1000 g/ha [2, 10]: 100%; pest or weed control at 1000 g/ha [3, 11]: 90%; pest or weed control at 1000 g/ha [3, 12]: 100%; pest or weed control at 1000 g/ha [4, 13]: 80%; pest or weed control at 1000 g/ha [4, 14]: 100%"
"Cc1nn(C)c(=O)c(-c2cccc3ccccc23)c1O [Compound 11, 5-hydroxy-2,6-dimethyl-4-(1-naphthalenyl)-3(2H)-pyridazinone]",80,95,95,100,100,100,80,0,5,5,0,0,0,0,0,60,50,50,20,90,"pest or weed control at 1000 g/ha [2, 10]: 100%; pest or weed control at 1000 g/ha [3, 11]: 80%; pest or weed control at 1000 g/ha [3, 12]: 90%; pest or weed control at 1000 g/ha [4, 13]: 90%; pest or weed control at 1000 g/ha [4, 14]: 90%"
